Results as given in PMC9820208, “A Chloroplast-Localized Glucose-6-Phosphate Dehydrogenase Positively Regulates Stripe Rust Resistance in Wheat” (International Journal of Molecular Sciences, 2022).

System: T1, TaG6PDH2 (TaG6PDH2-2D)
T1 construct: CDS in pET15b-sumo, E. coli BL21 (DE3), 6xHis and SUMO tags, about 75 kDa on gel; His-Trap FF purified fusion
Test: G6PDH activity, double-reciprocal plot ([…]/V vs. […]/[G6P])
Format: biochemical, Triticum aestivum
Conditions: purified His-SUMO fusion; assay conditions only by reference; read-out: KmG6P

O=P(O)(O)OC[C@H]1OC(O)[C@H](O)[C@@H](O)[C@@H]1O (stereo partly shown) [G6P, glucose-6-phosphate]
Km: 1980 µM
